According to ChEMBL document CHEMBL1137137, “A novel series of 2-pyridyl-containing compounds as lysophosphatidic acid receptor antagonists: development of a nonhydrolyzable LPA3 receptor-selective antagonist” (Bioorg Med Chem Lett, 2004):

Tests used:
[1] = biological target: T1, Lysophosphatidic acid receptor 1 (Homo sapiens, UniProt Q92633); assay: Inhibitory concentration against Lysophosphatidic acid 1 (LPA1) receptor
[2] = biological target: T2, Lysophosphatidic acid receptor 3 (Homo sapiens, UniProt Q9UBY5); assay: Antagonist activity at Lysophosphatidic acid 3 (LPA3) receptor
T2 sequence (Q9UBY5 whole entry): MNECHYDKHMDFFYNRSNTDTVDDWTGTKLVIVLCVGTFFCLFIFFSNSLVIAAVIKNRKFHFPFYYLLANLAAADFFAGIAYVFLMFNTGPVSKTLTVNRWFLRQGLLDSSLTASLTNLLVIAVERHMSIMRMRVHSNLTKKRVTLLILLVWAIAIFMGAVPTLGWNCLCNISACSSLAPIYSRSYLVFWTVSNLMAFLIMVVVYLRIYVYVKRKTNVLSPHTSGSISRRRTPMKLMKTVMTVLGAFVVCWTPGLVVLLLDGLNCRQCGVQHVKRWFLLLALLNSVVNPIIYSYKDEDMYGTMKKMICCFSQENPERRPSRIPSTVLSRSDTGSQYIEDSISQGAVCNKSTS

[3] = biological target: T1, Lysophosphatidic acid receptor 1; assay: Binding affinity towards Lysophosphatidic acid 1 (LPA1) receptor

T1 sequence (Q92633 whole entry): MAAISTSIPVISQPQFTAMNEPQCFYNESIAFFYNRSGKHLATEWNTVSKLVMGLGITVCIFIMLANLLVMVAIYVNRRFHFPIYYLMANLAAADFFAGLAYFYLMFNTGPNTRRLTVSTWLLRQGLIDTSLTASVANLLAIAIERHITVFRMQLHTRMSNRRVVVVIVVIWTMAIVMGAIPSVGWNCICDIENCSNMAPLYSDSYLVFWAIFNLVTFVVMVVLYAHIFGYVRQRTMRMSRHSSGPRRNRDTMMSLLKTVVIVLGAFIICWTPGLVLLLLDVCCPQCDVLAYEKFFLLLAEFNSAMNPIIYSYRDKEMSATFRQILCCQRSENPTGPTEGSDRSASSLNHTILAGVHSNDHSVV

| Structure (SMILES) | IC50 [1] | IC50 [2] | Ki [3] |
| --- | --- | --- | --- |
| CCCCCCCCCCCCCCCC(=O)N[C@H](CCP(=O)(O)O)Cc1ccc(OCc2ccccn2)cc1 | > 10000 nM | 1050 nM | – |
| CCCCCCCC/C=C\CCCCCCCC(=O)N[C@H](COP(=O)(O)O)Cc1ccc(OCc2ncc(C)c(OC)c2C)cc1 | 3690 nM | 561 nM | – |
| CCCCCCCC/C=C\CCCCCCCC(=O)N[C@@H](COP(=O)(O)O)Cc1ccc(OCc2ncc(C)c(OC)c2C)cc1 | 62 nM | 39 nM | 28 nM |
| CCCCCCCC/C=C\CCCCCCCC(=O)N[C@H](CCP(=O)(O)O)Cc1ccc(OCc2ccccn2)cc1 | > 10000 nM | > 10000 nM | – |
| CCCCCCCC/C=C\CCCCCCCC(=O)N[C@@H](COP(=O)(O)O)Cc1ccc(OCc2cc(OCCC)ccn2)cc1 | 141 nM | 1660 nM | 64 nM |
| CCCCCCCC/C=C\CCCCCCCC(=O)N[C@@H](COP(=O)(O)O)Cc1ccc(OCc2cc(OC)ccn2)cc1 | 6250 nM | 102 nM | – |
| CCCCCCCC/C=C\CCCCCCCC(=O)N[C@@H](CCP(=O)(O)O)Cc1ccc(OCc2ccccn2)cc1 | > 10000 nM | > 10000 nM | – |
| CCCCCCCC/C=C\CCCCCCCC(=O)N[C@@H](COP(=O)(O)O)Cc1ccc(OCc2ccc3ccccc3n2)cc1 | 1430 nM | 533 nM | – |
| CCCCCCCC/C=C\CCCCCCCC(=O)N[C@H](COP(=O)(O)O)Cc1ccc(OCc2ccncc2)cc1 | > 10000 nM | 6960 nM | – |
| CCCCCCCC/C=C\CCCCCCCC(=O)N[C@@H](COP(=O)(O)O)Cc1ccc(OCc2ccccn2)cc1 | – | 175 nM | – |
| CCCCCCCC/C=C\CCCCCCCC(=O)N[C@@H](COP(=O)(O)O)Cc1ccc(OCc2cccnc2)cc1 | 992 nM | 1690 nM | – |
| CCCCCCCC/C=C\CCCCCCCC(=O)N[C@H](COP(=O)(O)O)Cc1ccc(OCc2ccccn2)cc1 | – | 940 nM | – |
| CCCCCCCC/C=C\CCCCCCCC(=O)N[C@H](COP(=O)(O)O)Cc1ccc(OCc2cccnc2)cc1 | 4500 nM | 6240 nM | – |
| CCCCCCCC/C=C\CCCCCCCC(=O)N[C@H](COP(=O)(O)O)Cc1ccc(OCc2cc(OC)c3ccccc3n2)cc1 | > 10000 nM | 2600 nM | – |
| CCCCCCCC/C=C\CCCCCCCC(=O)N[C@@H](CCP(=O)(O)O)Cc1ccc(OCc2ncc(C)c(OC)c2C)cc1 | > 10000 nM | 150 nM | – |
| CCCCCCCC/C=C\CCCCCCCC(=O)N[C@@H](Cc1ccc(OCc2ccccc2)cc1)CC(O)P(=O)(O)O (stereo partly specified) | 4230 nM | 232 nM | – |
| CCCCCCCC/C=C\CCCCCCCC(=O)N[C@@H](COP(=O)(O)O)Cc1ccc(OCc2ccncc2)cc1 | 735 nM | 2080 nM | – |
| CCCCCCCC/C=C\CCCCCCCC(=O)N[C@@H](COP(=O)(O)O)Cc1ccc(OCc2cc(OC)c3ccccc3n2)cc1 | 962 nM | 1160 nM | – |
| CCCCCCCC/C=C\CCCCCCCC(=O)N[C@@H](COP(=O)(O)O)Cc1ccc(OCc2cc(OCC(F)(F)F)ccn2)cc1 | 84 nM | 48 nM | 19 nM |
| CCCCCCCC/C=C\CCCCCCCC(=O)N[C@H](CCP(=O)(O)O)Cc1ccc(OCc2ncc(C)c(OC)c2C)cc1 | > 10000 nM | 4000 nM | – |
| CCCCCCCC/C=C\CCCCCCCC(=O)N[C@@H](COP(=O)(O)O)Cc1ccc(OCc2cc(OCCOC)ccn2)cc1 | 114 nM | 423 nM | 35 nM |
| CCCCCCCC/C=C\CCCCCCCC(=O)N[C@@H](COP(=O)(O)O)Cc1ccc(OCc2cccc(OC)n2)cc1 | 2840 nM | 455 nM | – |
| CCCCCCCC/C=C\CCCCCCCC(=O)N[C@@H](COP(=O)(O)O)Cc1ccc(OCc2cc(OCC)ccn2)cc1 | 143 nM | 39 nM | 26 nM |
| CCCCCCCC/C=C\CCCCCCCC(=O)N[C@H](COP(=O)(O)O)Cc1ccc(OCc2cccc(OC)n2)cc1 | > 10000 nM | 1090 nM | – |
